Entries after “also recorded” stand apart in the source; their conditions may differ. Read-outs that look alike come from different tables or passages of the source.
Tests used:
CLK2 = CLK2 (Homo sapiens, UniProt P49760); assay: kinase activity profiling, CLK2; assay type: biochemical
human β-cells [1] = assay: human islet cell-culture EdU proliferation assay; assay type: cell-based
Excerpt: A human islet cell-culture system and proliferation assay developed by Wagner et al. was used to not only of preserve β-cell function over 7-10 days in culture, but also identify conditions that increase β-cell division.[32] The thymidine analog 5-ethinyl-2′-deoxyuridine (EdU) was used, which, when reacted with an azide-conjugated fluorophore, enables rapid and high-quality imaging of cells that have ever gone through S phase.[34] The detection was paired with insulin immunofluorescence, followed by automated imaging and analysis to identify EdU+ins+ cells after compound treatment. Islet cells were incubated with EdU for 6 days, consistent with the low rate of human β-cell proliferation. […] The quality of the assay was verified by using as a positive control adenoviral overexpression of human CDK6 and cyclin D1.[35]
[38] […] This effect was consistent across >20 human islet donors, irrespective of age, gender, BMI, or cause of death.

human β-cells [2] = assay: glucose-stimulated insulin secretion (GSIS) in dissociated islet cells; assay type: cell-based; details: cells treated for 12 days
Excerpt: In the DMSO-treated state, glucose stimulated ˜2-fold increase in insulin secretion in dissociated islet cells. […] Although incompletely understood, the loss of basal secretion may be due to cell-death effects on other cells in the culture system.

CLK4 = CLK4 (Homo sapiens, UniProt Q9HAZ1); assay: kinase activity profiling, CLK4; assay type: biochemical
Sequence of CLK4 (Q9HAZ1 whole entry): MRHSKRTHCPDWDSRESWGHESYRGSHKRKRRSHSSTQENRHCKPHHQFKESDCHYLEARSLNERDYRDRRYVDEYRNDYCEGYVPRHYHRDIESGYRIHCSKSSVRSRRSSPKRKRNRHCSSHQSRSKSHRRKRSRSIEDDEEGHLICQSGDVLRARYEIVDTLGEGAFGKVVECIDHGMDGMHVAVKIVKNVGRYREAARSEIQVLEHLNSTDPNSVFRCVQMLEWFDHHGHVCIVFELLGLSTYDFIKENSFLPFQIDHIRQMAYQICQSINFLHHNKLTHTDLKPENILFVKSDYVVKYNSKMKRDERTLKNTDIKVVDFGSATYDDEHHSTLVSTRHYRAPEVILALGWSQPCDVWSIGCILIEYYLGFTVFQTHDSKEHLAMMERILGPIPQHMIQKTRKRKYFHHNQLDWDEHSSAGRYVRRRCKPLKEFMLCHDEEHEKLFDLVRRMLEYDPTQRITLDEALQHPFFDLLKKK

DYRK1B = DYRK1B (Homo sapiens, UniProt Q9Y463); assay: kinase activity profiling, DYRK1B; assay type: biochemical
Sequence of DYRK1B (Q9Y463 whole entry): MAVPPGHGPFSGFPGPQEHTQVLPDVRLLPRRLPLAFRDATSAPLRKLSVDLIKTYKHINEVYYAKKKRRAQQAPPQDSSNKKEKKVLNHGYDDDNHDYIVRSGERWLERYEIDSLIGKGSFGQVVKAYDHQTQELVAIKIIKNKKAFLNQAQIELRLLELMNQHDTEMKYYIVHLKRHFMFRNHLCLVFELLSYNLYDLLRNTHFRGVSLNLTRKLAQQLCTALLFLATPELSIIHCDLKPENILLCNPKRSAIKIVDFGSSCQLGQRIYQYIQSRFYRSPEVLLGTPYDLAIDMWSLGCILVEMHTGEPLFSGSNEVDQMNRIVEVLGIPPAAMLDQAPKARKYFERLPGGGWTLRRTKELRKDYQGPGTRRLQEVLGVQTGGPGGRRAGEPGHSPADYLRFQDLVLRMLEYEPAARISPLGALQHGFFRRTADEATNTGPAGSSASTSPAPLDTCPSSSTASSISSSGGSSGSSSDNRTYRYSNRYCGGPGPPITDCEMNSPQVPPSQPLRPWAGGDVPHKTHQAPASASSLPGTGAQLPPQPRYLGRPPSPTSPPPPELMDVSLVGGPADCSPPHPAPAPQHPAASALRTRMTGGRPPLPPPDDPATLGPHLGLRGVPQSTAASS

CLK1 = CLK1 (Homo sapiens, UniProt P49759); assay: kinase activity profiling, CLK1; assay type: biochemical
Sequence of CLK1 (P49759 whole entry): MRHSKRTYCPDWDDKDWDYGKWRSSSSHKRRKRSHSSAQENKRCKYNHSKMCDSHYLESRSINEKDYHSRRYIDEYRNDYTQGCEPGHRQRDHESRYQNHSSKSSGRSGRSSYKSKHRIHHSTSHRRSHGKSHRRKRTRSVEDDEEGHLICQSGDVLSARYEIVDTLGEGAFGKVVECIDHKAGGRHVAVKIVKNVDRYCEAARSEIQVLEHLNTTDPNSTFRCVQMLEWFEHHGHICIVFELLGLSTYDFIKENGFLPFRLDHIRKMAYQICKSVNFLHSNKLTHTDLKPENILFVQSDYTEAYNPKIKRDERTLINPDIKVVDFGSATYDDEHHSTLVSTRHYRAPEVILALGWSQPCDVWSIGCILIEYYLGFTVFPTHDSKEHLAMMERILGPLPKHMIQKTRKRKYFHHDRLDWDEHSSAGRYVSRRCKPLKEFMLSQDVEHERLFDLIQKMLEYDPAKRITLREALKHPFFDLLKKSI

DYRK2 = molecular target: T1, DYRK2 (Homo sapiens, UniProt Q92630); assay: kinase activity profiling, DYRK2; assay type: biochemical
T1 sequence (Q92630 1-601): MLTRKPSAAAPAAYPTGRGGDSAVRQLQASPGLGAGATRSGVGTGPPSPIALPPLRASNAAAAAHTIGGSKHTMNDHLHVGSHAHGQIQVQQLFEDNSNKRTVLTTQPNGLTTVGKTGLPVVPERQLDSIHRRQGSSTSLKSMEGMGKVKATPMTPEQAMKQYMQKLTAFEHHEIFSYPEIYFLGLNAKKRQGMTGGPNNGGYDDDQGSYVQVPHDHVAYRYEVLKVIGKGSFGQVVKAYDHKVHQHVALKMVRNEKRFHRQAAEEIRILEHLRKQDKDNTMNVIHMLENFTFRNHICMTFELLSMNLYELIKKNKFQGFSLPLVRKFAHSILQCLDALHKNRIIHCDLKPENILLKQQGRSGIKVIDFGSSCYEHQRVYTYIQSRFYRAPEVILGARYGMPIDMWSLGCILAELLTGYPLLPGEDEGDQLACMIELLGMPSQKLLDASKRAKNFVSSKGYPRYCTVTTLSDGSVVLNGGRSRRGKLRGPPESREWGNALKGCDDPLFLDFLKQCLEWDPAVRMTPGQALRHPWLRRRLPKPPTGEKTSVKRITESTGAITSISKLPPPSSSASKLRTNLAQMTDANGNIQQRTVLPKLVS

[3] = test system: liver, adipose, muscle, and kidney tissue; assay: proliferation of other tissues in 5-IT-treated mice; assay type: in vivo; details: 0.625 mg/kg i.p. twice a week for 3 weeks
human β-cells [4] = assay: human islet grafts in NSG mice, β-cell replication; assay type: in vivo, human islets transplanted in NSG mice
Excerpt: 1) Establishing a humanized mouse model: The humanized mouse model is established according to Kulkarni et al.[22,23] Briefly, the immunodeficient NOD.Cg-Prkdc^scidIl2rg^tm1Wj1SzJ mouse strain, commonly known as NOD-scid gamma (NSG), combines features of the NOD/ShiLtJ background and […], known as the severe combined immune deficiency mutation (scid), which essentially eliminates adaptive immunity. This strain has utility in studies of hematopoietic and cancer stem cells and of islet transplantation.
A separate group of mice with human islet transplants were injected with DMSO as vehicle controls, and sham-operated animals were used as an additional control group. The injection was repeated twice a week for 3 weeks. In the final week, we injected BrdU (100 mg/kg) daily for 4 days, and six hours after the last BrdU injection the pancreas was harvested. β-cell replication was assessed using previously described protocols.[23] For sivelestat experiments, osmotic pumps loaded with compound (300 μg/kg/day) were implanted into mice, and were treated for 14 days. Mice were provided BrdU in drinking water and injected i.p. on days 8, 11, and 14. Islets were harvested five hours after the last BrdU injection.

[5] = test system: aTC1.6, PANC1, HEK293T and cells of other lineages; assay: reaction-based probe (DA-ZP1) fluorescence in non-β cell types
Protocol: (§1) All the imaging experiments were performed in 96 well plate. INS-1E, PANC1, αTC1.6, HEK293T and other cell types were plated in 96 well plate. 70 μL, 4×PFA was added in each well to fix the cells. After 15 minutes, all the wells were washed with PBS. After washing with PBS, 70 μL DAPI (1×) (nuclear stain) was added along with appropriate concentration of DAZP-1. The staining process was continued for 20 minute and 100 μL PBS as was added in each well.

islets = assay: islet fluorescence after intraperitoneal injection of DA-ZP1; assay type: in vivo; details: single dose 50 mg/kg intraperitoneally, 10-12-week old C57BL/6 mice
Protocol: (§2) Next, this probe was incubated in dissociated rat or human islets, co-staining for insulin to identify β-cells and glucagon to identify alpha cells. […] Using confocal microscopy, distinct green-fluorescent vesicles were observed within β-cells (FIG. 3D), showing the high degree of resolution for the localization of this probe. Finally, 10-12-week old C57BL/6 mice were injected intraperitoneally with a single dose of 50 mg/kg DA-ZP1 or DMSO.

[6] = test system: β-cells and alpha cells of dissociated rat or human islets; assay: probe incubation in dissociated islets, co-staining for insulin and glucagon; assay type: cell-based
Protocol: as §2

INS-1E = assay: reaction-based probe (DA-ZP1) fluorescence in a β-cell line; details: compared to other cell types
Protocol: as §1

mouse islets (β-cells) [7] = assay: sivelestat treatment of mouse islets, β-cell proliferation; details: in vivo
Protocol: (§3) Next, sivelestat, a small-molecule inhibitor of elastinolytic proteases and thus a partial mimic of serpinB1 activity, was tested for β-cell proliferation. […] Thus, small molecules promote β-cell proliferation in human islets transplanted in vivo by targeting two independent pathways.

[8] = test system: liver, skeletal muscle, visceral and subcutaneous adipose tissue, spleen, or kidney; assay type: in vivo, mouse; details: data not shown
Protocol: as §3

mouse islets (β-cells) [9] = assay: mouse islet culture, Ki67 proliferation; assay type: cell-based
Excerpt: (§4) Liver was found as the source of a secreted factor in this model that can induce β-cell proliferation in mouse and human islets.[24] A proteomics effort using liver, liver explant-conditioned media, hepatocyte-conditioned media, and plasma led to the discovery that serpin B1, a protease inhibitor that targets elastases, is enriched in serum from LIRKO mice (FIG. 10).[1]

human islets (β-cells) = assay: human islet β-cell proliferation with rSerpinB1; assay type: cell-based
Excerpt: as §4

[10] = human islet cells, 6 days of treatment
[11] = 0.625 mg/kg i.p. twice a week for 3 weeks

Sequence of CLK2 (P49760 whole entry): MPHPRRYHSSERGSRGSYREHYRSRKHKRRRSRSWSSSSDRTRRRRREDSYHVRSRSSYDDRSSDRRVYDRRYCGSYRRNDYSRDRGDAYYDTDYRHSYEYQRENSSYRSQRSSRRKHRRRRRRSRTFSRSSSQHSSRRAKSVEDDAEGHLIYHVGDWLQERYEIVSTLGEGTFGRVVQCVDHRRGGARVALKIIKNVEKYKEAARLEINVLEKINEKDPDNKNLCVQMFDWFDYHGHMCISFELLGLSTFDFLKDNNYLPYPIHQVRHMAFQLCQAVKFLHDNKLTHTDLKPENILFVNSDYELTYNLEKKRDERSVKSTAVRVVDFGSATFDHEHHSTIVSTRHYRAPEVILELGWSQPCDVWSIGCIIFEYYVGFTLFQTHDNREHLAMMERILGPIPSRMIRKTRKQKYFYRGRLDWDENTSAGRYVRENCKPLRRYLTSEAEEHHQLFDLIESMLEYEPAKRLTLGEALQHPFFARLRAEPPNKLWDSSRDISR

Nc1ncnc2c1c(I)cn2[C@@H]1O[C@H](CO)[C@@H](O)[C@H]1O [5-IT, 5-iodotubercidin]
IC50 (CLK2): 0.01 µM | concentrations toxic to cells (human β-cells [1]; human islet cells): greater than 1 μM | effect on EdU incorporation / β-cell proliferation (human β-cells [1]; human islet cells): promotes | concentration of maximal effect on proliferation (human β-cells [1]; [10]): 1 µM | increase in proliferation (EdU incorporation) (human β-cells [1]; [10]): ~10 fold | proliferation of the other cell types in the heterogeneous culture system (human β-cells [1]; non-β cells of human islet culture): did not induce proliferation | baseline secretion under low-glucose conditions (human β-cells [2]): decreased somewhat in a dose-dependent manner | glucose-stimulated insulin secretion (GSIS) (human β-cells [2]): an increase in GSIS was observed | IC50 (CLK4): 0.014 µM | IC50 (DYRK1B): 0.01 µM | IC50 (CLK1): 0.036 µM | IC50 (DYRK2): 0.006 µM | proliferation of liver, adipose, muscle, and kidney tissue, control vs treated mice [3]: No significant differences | increase in BrdU incorporation in human islet grafts (human β-cells [4]; [11]): ~5 fold | mitosis by Ki67 and pHH3 immunostaining in human islet grafts (human β-cells [4]; [11]): enhanced mitosis was confirmed

Nc1ncnc2nc(-c3ccc(N4CCOCC4)nc3)cc(-c3cccc(Br)c3)c12 [ABT-702, 4-amino-5-(3-bromophenyl)-7-(6-morpholinopyridin-3-yl)pyrido[2,3-d]pyrimidine]
effect on EdU incorporation / β-cell proliferation (human β-cells [1]; human islet cells): does not; also recorded: no effect

CC(=O)Oc1c(Cl)cc2c(c1CN(Cc1ccccn1)Cc1ccccn1)Oc1c(cc(Cl)c(OC(C)=O)c1CN(Cc1ccccn1)Cc1ccccn1)C21OC(=O)c2ccccc21 [DA-ZP1]
fluorescence / labeling in other cell types [5]: do not observe non-specific labeling | fluorescence / labeling in other cell types ([5]; listed as reaction-based probe): minimal background fluorescence | fluorescence in islet sections (islets): Fluorescence was detected | overlap between glucagon-positive and zinc probe-positive cells [6]: very little to no overlap | overlap between insulin-positive and zinc probe-positive cells [6]: high degree of overlap | fluorescence in β-cells (INS-1E) (INS-1E): high average fluorescent cell intensity and high % fluorescence-positive cells | fluorescence in β-cells (INS-1E) (INS-1E; listed as reaction-based probe): highly fluorescent

COc1ccc2c(c1)[nH]c1c(C)nccc12 [harmine]
EdU+ins+ cells (human β-cells [1]; 5 and 10 μM, 6-days treatment, human islet cells): dose-dependent increase | effect on EdU incorporation / β-cell proliferation (human β-cells [1]; human islet cells): promotes β-cell proliferation in a dose-dependent manner

CC(C)(C)C(=O)Oc1ccc(S(=O)(=O)Nc2ccccc2C(=O)NCC(=O)O)cc1 [sivelestat]
β-cell proliferation in mouse islets (mouse islets (β-cells) [7]): increased β-cell proliferation | proliferation of human β-cells (islet grafts) (human β-cells [4]; osmotic pumps 300 μg/kg/day, 14 days): increased proliferation | effect on liver, skeletal muscle, visceral and subcutaneous adipose tissue, spleen, or kidney [8]: without a significant effect

B1: rSerpinB1: recombinant human serpinB1, a protease inhibitor that targets elastases (protein, UniProt P30740 1-379, looked up)
Leukocyte elastase inhibitor: MEQLSSANTRFALDLFLALSENNPAGNIFISPFSISSAMAMVFLGTRGNTAAQLSKTFHFNTVEEVHSRFQSLNADINKRGASYILKLANRLYGEKTYNFLPEFLVSTQKTYGADLASVDFQHASEDARKTINQWVKGQTEGKIPELLASGMVDNMTKLVLVNAIYFKGNWKDKFMKEATTNAPFRLNKKDRKTVKMMYQKKKFAYGYIEDLKCRVLELPYQGEELSMVILLPDDIEDESTGLKKIEEQLTLEKLHEWTKPENLDFIEVNVSLPRFKLEESYTLNSDLARLGVQDLFNSSKADLSGMSGARDIFISKIVHKSFVEVNEEGTEAAAATAGIATFCMLMPEENFTADHPFLFFIRHNSSGSILFLGRFSSP
effect on Ki67+ insulin+ cells (mouse islets (β-cells) [9]): dose-dependent effect | increase in the percentage of Ki67+ins+ cells (mouse islets (β-cells) [9]; dose of 1 μg/mL): 2 fold | effect on Ki67+ insulin+ cells (mouse islets (β-cells) [9]; listed as serpinB1): dose-dependent effect | effect on Ki67+ insulin+ cells (mouse islets (β-cells) [9]; listed as untagged SerpinB1): promotes | β-cell proliferation from human islets (human islets (β-cells)): dose-dependent increase

B2: inactive N-tagged serpin B1 construct: inactive N-tagged serpin B1 construct from GeneCopoeia (protein, UniProt P30740 1-379, looked up)
Leukocyte elastase inhibitor: B1 Leukocyte elastase inhibitor
modifications: N-terminal tag; inactive
effect on Ki67+ insulin+ cells (mouse islets (β-cells) [9]): no impact
